Read-outs that look alike come from different tables or passages of the source.
Key:
COX-2 [1] = biological target: T1, COX-2 (Homo sapiens, UniProt P35354); assay: cell-based; details: CHO[hCOX-2] cells, 10 μM AA, 15 min preincubation; read-out: COX-2 (IC50 mM) CHO
T1 sequence (P35354 18-604): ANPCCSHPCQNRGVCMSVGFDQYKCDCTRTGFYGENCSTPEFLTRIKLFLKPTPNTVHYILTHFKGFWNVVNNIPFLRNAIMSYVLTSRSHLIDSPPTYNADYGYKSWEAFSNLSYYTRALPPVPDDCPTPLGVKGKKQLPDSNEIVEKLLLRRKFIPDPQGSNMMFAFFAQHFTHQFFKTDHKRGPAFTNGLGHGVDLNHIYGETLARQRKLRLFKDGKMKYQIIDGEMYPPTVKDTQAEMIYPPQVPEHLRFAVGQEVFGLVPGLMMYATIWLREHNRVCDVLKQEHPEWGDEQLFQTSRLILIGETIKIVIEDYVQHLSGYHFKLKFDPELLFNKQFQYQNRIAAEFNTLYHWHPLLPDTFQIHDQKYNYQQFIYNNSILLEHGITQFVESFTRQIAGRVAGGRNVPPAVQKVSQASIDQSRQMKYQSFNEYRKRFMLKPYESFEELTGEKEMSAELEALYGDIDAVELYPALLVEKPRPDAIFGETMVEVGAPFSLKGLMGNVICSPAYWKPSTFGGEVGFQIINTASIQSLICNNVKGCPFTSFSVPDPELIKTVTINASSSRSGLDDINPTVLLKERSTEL
Procedure: For cyclooxygenase assays, CHO[hCOX-1] cells from suspension cultures and CHO[hCOX-2] cells prepared by trypsinization of adherent cultures are harvested by centrifugation (300×g, 10 min) and washed once in HBSS containing 15 mM HEPES, pH 7.4, and resuspended in HBSS, 15 mM HEPES, pH 7.4, at a cell concentration of 1.5×10^6 cells/ml. Drugs to be tested are dissolved in DMSO to 66.7-fold the highest test drug concentration. […] Cells (0.3×10^6 cells in 200 μl) are preincubated with 3 μl of the test drug or DMSO vehicle for 15 min at 37° C. Working solutions of peroxide-free AA (5.5 μM and 110 μM AA for the CHO [hCOX-1] and CHO [COX-2] assays, respectively) are prepared by a 10-fold dilution of a concentrated AA solution in ethanol into HBSS containing 15 mM HEPES, pH 7.4. Cells are then challenged in the presence or absence of drug with the AA/HBSS solution to yield a final concentration of 0.5 μM AA in the CHO[hCOX-1] assay and a final concentration of 10 μM AA in the CHO[hCOX-2] assay. The reaction is terminated by the addition of 10 μl 1 N HCl followed by neutralization with 20 μl of 0.5 N NaOH. The samples are centrifuged at 300 ×g at 4° C. for 10 min, and an aliquot of the clarified supernatant is appropriately diluted for the determination of PGE2 levels using an enzyme-linked immunoassay for PGE2 (Correlate PGE2 enzyme immunoassay kit, Assay Designs, Inc.). Cyclooxygenase activity in the absence of test compounds is determined as the difference in PGE2 levels of cells challenged with arachidonic acid versus the PGE2 levels in cells mock-challenged with ethanol vehicle. Inhibition of PGE2 synthesis by test compounds is calculated as a percentage of the activity in the presence of drug versus the activity in the positive control samples.

COX-1 = COX-1 (Homo sapiens, UniProt P23219); assay: Assay of COX-1 activity from U937 cell microsomes (PGE2); type: biochemical; design: Assay of COX-1 Activity from U937 Cell Microsomes; endogenous in cells; host or cells: U937 cells, 100,000 x g microsomal pellet; details: U-937 cell microsomes, 15 min preincubation; read-out: COX-1 (IC50 mM) U-937
COX-1, sequence (P23219 24-599): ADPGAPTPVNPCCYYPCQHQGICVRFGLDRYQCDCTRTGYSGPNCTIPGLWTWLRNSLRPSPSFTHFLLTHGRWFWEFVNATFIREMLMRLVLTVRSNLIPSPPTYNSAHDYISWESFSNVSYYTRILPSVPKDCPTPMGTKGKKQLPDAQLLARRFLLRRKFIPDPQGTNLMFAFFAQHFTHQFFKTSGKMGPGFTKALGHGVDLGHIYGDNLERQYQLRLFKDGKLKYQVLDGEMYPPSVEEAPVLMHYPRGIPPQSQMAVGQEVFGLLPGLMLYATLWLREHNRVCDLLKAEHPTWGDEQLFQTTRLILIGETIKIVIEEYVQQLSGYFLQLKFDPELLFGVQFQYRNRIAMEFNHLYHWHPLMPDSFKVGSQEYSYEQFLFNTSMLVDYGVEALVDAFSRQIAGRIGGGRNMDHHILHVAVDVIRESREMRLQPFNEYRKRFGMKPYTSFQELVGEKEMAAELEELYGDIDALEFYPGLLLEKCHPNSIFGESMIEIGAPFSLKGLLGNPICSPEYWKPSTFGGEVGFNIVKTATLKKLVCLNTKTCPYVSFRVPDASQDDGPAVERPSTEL
Procedure: U 937 cells are pelleted by centrifugation at 500×g for 5 min and washed once with phosphate-buffered saline and repelleted. Cells are resuspended in homogenization buffer consisting of 0.1 M Tris-HCl, pH 7.4, 10 mM EDTA, […] leupeptin, 2 μg/ml soybean trypsin inhibitor, 2 μg/ml aprotinin and 1 mM phenyl methyl sulfonyl fluoride. The cell suspension is sonicated 4 times for 10 sec and is centrifuged at 10,000×g for 10 min at 4° C. The supernatant is centrifuged at 100,000×g for 1 hr at 4° C. The 100,000×g microsomal pellet is resuspended in 0.1 M Tris-HCl, pH 7.4, 10 mM EDTA to approximately 7 mg protein/ml and stored at -80° C.
Microsomal preparations are thawed immediately prior to use, subjected to a brief sonication, and then diluted to a protein concentration of 125 μg/ml in 0.1 M Tris-HCl buffer, pH 7.4 containing 10 mM EDTA, 0.5 mM phenol, 1 mM reduced glutathione and 1 μM hematin. Assays are performed in duplicate in a final volume of 250 μl. Initially, 5 μl of DMSO vehicle or drug in DMSO are added to 20 μl of 0.1 M Tris-HCl buffer, pH 7.4 containing 10 mM EDTA in wells of a 96-deepwell polypropylene titre plate. 200 μl of the microsomal preparation are then added and pre-incubated for 15 min at room temperature before addition of 25 μl of […] arachidonic acid in […] Tris-HCl and 10 mM EDTA, pH 7.4. Samples are incubated for 40 min at room temperature and the reaction is stopped by the addition of 25 μl of 1 N HCl. Samples are neutralized with 25 μl of 1 N NaOH prior to quantitation of PGE2 content by radioimmunoassay (Dupont-NEN or Amersham assay kits). Cyclooxygenase activity is defined as the difference between PGE2 levels in samples incubated in the presence of arachidonic acid and ethanol vehicle.
In the assay, inhibition is determined by measuring the amount of prostaglandin E2 (PGE2) synthesized in the presence of arachidonic acid, cyclooxygenase-1 or cyclooxygenase-2 and a putative inhibitor.

COX-2 [2] = biological target: T1, COX-2; assay: cell-based; details: human whole blood, LPS-induced PGE2, 24 h; read-out: COX-2 (IC50 mM) HWB
From the text: As well, platelets in whole blood contain a large amount of the COX-1 enzyme. Immediately following blood clotting, platelets are activated through a thrombin-mediated mechanism. This reaction results in the production of thromboxane B2 (TxB2) via activation of COX-1. Thus, the effect of test compounds on TxB2 levels following blood clotting can be examined and used as an index for COX-1 activity. Therefore, the degree of selectivity by the test compound can be determined by measuring the levels of PGE2 after LPS induction (COX-2) and TxB2 following blood clotting (COX-1) in the same assay.
Fresh blood is collected in heparinized tubes by venipuncture from both male and female volunteers. The subjects have no apparent inflammatory conditions and have not taken any NSAIDs for at least 7 days prior to blood collection. Plasma is immediately obtained from a 2mL blood aliquot to use as blank (basal levels of PGE2). The remaining blood is incubated with LPS (100 μg/ml final concentration, Sigma Chem, #L-2630 from E. coli; diluted in 0.1% BSA (Phosphate buffered saline) for 5 minutes at room temperature. Five hundred […] aliquots of blood are incubated with either 2 μL of vehicle (DMSO) or 2 μL of a test compound at final concentrations varying from 10 nM to 30 μM for 24 hours at 37° C. At the end of the incubation, the blood is centrifuged at 12,000×g for 5 minutes to obtain plasma. A 100 μL aliquot of plasma is mixed with 400 μL of methanol for protein precipitation. The supernatant is obtained and is assayed for PGE2 using a radioimmunoassay kit (Amersham, RPA#530) after conversion of PGE2 to its methyl oximate derivative according to the manufacturer's procedure. […]

Row | Compound | IC50 (COX-2 [1]) [nM] | IC50 (COX-1) [mM] | IC50 (COX-2 [2]) [mM]
1 | C[C@]1(O)CCC[C@H]1Oc1ncc(C(F)(F)F)cc1-c1ccc(S(N)(=O)=O)cc1 (relative stereo) [Example 33, 3-(4-aminosulfonyl)phenyl-2-(cis-2-hydroxy-2-methylcyclopentyloxy)-5-trifluoromethylpyridine] | 40 | 0.01 | 0.0037
2 | C[C@]1(O)CCC[C@H]1Oc1ncc(Cl)cc1-c1ccc(S(C)(=O)=O)cc1 (relative stereo) [Example 34, 5-Chloro-2-(cis-2-hydroxy-2-methylcyclopentyloxy)-3-(4-methylsulfonyl)phenylpyridine] | 100 | > 0.01 | 0.0017
3 | CC[C@]1(O)CCC[C@H]1Oc1ncc(C(F)(F)F)cc1-c1ccc(S(C)(=O)=O)cc1 (relative stereo) [Example 36, 2-(cis-2-Hydroxy-2-ethylcyclopentyloxy)-3-(4-methylsulfonyl)phenyl-5-trifluoromethylpyridine] | 170 | > 0.01 | 0.0031
4 | C[C@@]1(O)CCCC[C@@H]1Oc1ncc(C(F)(F)F)cc1-c1ccc(S(C)(=O)=O)cc1 (relative stereo) [Example 37, 2-(cis-2-Hydroxy-2-methylcyclohexyloxy)-3-(4-methylsulfonyl)phenyl-5-trifluoromethylpyridine] | 570 | > 0.01 | 0.0065
5 | COCCOc1ncc(C(F)(F)F)cc1-c1ccc(S(C)(=O)=O)cc1 [Example 2, 2-(2-Methoxy)ethoxy-3-(4-methylsulfonyl)phenyl-5-trifluoromethylpyridine] | 20 | 0.001 to 0.003 | 0.0013
6 | CC(C)(O)COc1ncc(C(F)(F)F)cc1-c1ccc(S(C)(=O)=O)cc1 [Example 4, 2-(2-Hydroxy-2-methyl-1-propyloxy)-3-(4-methylsulfonyl)phenyl-5-trifluoromethylpyridine] | 150 | > 0.1 | 0.0008
7 | CC(C)(O)COc1ncc(Cl)cc1-c1ccc(S(C)(=O)=O)cc1 [Example 5, 5-Chloro-2-(2-hydroxy-2-methyl-1-propyloxy)-3-(4-methylsulfonyl)phenylpyridine] | 110 | > 0.1 | 0.0036
8 | COC(C)(C)COc1ncc(C(F)(F)F)cc1-c1ccc(S(C)(=O)=O)cc1 [Example 6, 2-(2-Methoxy-2-methyl-1-propyloxy)-3-(4-methylsulfonyl)phenyl-5-trifluoromethylpyridine] | 30 | 0.003 to 0.01 | < 0.0004
9 | CCC(C)(O)COc1ncc(C(F)(F)F)cc1-c1ccc(S(C)(=O)=O)cc1 (stereo not drawn) [Example 7, 2-(2-Hydroxy-2-methyl-1-butyloxy)-3-(4-methylsulfonyl)phenyl-5-trifluoromethylpyridine] | 130 | > 0.01 | 0.001
10 | CCC(O)(CC)COc1ncc(C(F)(F)F)cc1-c1ccc(S(C)(=O)=O)cc1 [Example 8, 2-(2-Hydroxy-2-ethyl-1-butyloxy)-3-(4-methylsulfonyl)phenyl-5-trifluoromethylpyridine] | 190 | > 0.01 | 0.0011
11 | CCC(O)(CC)COc1ncc(Cl)cc1-c1ccc(S(C)(=O)=O)cc1 [Example 9, 5-Chloro-2-(2-hydroxy-2-ethyl-1-butyloxy)-3-(4-methylsulfonyl)phenylpyridine] | 70 | > 0.01 | 0.0016
12 | CS(=O)(=O)c1ccc(-c2cc(C(F)(F)F)cnc2OCC2(O)CC2)cc1 [Example 11, 2-(1-Hydroxycyclopropyl)methoxy-3-(4-methylsulfonyl)phenyl-5-trifluoromethylpyridine] | 90 | 0.01 | 0.0016
13 | CS(=O)(=O)c1ccc(-c2cc(C(F)(F)F)cnc2OCC2(O)CCC2)cc1 [Example 12, 2-(1-Hydroxycyclobutyl)methoxy-3-(4-methylsulfonyl)phenyl-5-trifluoromethylpyridine] | 50 | > 0.01 | 0.0013
14 | C[C@H](Oc1ncc(C(F)(F)F)cc1-c1ccc(S(C)(=O)=O)cc1)C(C)(C)O [Example 16, 2-((2S)-3-Hydroxy-3-methyl-2-butyloxy)-3-(4-methylsulfonyl)phenyl-5-trifluoromethylpyridine] | 430 | > 0.01 | 0.0006
15 | C[C@@H](Oc1ncc(Cl)cc1-c1ccc(S(C)(=O)=O)cc1)C(C)(C)O [Example 18, 5-Chloro-2-((2R)-3-Hydroxy-3-methyl-2-butyloxy)-3-(4-methylsulfonyl)phenylpyridine] | 80 | > 0.01 | 0.0004
16 | CCC(Oc1ncc(C(F)(F)F)cc1-c1ccc(S(C)(=O)=O)cc1)C(C)(C)O (stereo not drawn) [Example 19, 2-(4-Hydroxy-4-methyl-3-pentyloxy)-3-(4-methylsulfonyl)phenyl-5-trifluoromethylpyridine] | 320 | > 0.01 | 0.0005
17 | CCC(O)(CC)[C@H](C)Oc1ncc(C(F)(F)F)cc1-c1ccc(S(C)(=O)=O)cc1 [Example 20, 2-((2S)-3-Ethyl-3-hydroxy-2-pentyloxy)-3-(4-methylsulfonyl)phenyl-5-trifluoromethylpyridine] | 400 | > 0.01 | 0.0016
18 | C[C@@H](O)[C@@H](C)Oc1ncc(Cl)cc1-c1ccc(S(C)(=O)=O)cc1 [Example 24, 5-Chloro-2-((2R,3R)-3-hydroxy-2-butyloxy)-3-(4-methylsulfonyl)phenylpyridine] | 70 | > 0.01 | 0.0015
19 | C[C@H](O)[C@@H](C)Oc1ncc(C(F)(F)F)cc1-c1ccc(S(C)(=O)=O)cc1 [Example 25, 2-((2R,3S)-3-Hydroxy-2-butyloxy)-3-(4-methylsulfonyl)phenyl-5-trifluoromethylpyridine] | 60 | > 0.01 | 0.0036
20 | C[C@H](O)CCOc1ncc(C(F)(F)F)cc1-c1ccc(S(C)(=O)=O)cc1 [Example 38, 2-((3S)-3-Hydroxy-1-butyloxy)-3-(4-methylsulfonyl)phenyl-5-trifluoromethylpyridine] | 260 | 0.003 to 0.01 | 0.0059
